Consider 24 compounds from patent US10975083B2, “Blood-brain barrier-penetrant dopamine-β-hydroxylase inhibitors” (BIAL—PORTELA & Cᵃ, S.A., priority 2016, dated 2021).

The experiment has as its target T1, DβH (Homo sapiens, UniProt P09172).
T1 construct: reaction mixture (total volume 500 μl) contained: cellular homogenate (75 μg total protein); host or cells: SK-N-SH cell homogenate
T1 sequence (P09172 1-617): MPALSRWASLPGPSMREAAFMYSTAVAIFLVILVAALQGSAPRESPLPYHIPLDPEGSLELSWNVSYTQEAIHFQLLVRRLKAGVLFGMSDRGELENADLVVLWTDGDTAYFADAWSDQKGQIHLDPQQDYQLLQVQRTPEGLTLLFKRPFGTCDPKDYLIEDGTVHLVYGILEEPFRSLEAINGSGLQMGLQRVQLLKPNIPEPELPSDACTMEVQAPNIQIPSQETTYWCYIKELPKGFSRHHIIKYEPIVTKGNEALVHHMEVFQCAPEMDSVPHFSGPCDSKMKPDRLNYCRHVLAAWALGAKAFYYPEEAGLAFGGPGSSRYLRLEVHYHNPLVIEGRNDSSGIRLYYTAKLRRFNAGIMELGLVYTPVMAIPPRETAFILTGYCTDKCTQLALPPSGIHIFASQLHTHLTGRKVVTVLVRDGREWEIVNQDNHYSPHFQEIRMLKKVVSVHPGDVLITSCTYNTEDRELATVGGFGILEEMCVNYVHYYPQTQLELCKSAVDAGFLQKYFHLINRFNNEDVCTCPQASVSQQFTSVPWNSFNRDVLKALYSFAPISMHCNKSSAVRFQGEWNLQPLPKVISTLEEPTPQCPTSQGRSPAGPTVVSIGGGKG
The experiment can be described thus: DβH inhibition cell assay (SK-N-SH cellular homogenates, tyramine to octopamine). Type of experiment: biochemical. The following applies: SK-N-SH cell homogenate; for remaining activity at 1 µM: inhibitor 1 μM, read-out: DβH activity in % of Ctrl (1 μM); for remaining activity at 0.1 µM: inhibitor 0.1 μM, read-out: DβH activity in % of Ctrl (0.1 μM); for remaining activity at 10 µM: inhibitor 10 μM, read-out: DβH activity in % of Ctrl (10 μM). How it is done:
The ability of a compound to inhibit DβH activity may be assessed using the following cell assay. […] . […] Fetal bovine serum was removed from cells for 4 h prior to collection.
For the preparation of cellular homogenates, media was removed and cell monolayers were washed with 50 mM Tris-HCl pH 7.4. Cells were subsequently scrapped off the flasks and were resuspended in 50 mM Tris pH 7.4. Cell suspensions were homogenized with SilentCrusher M (Heidolph) for a short stroke and resultant homogenates were aliquoted and stored frozen at −80° C.
Total protein was quantified in cellular homogenates with BioRad Protein Assay (BioRad) using a standard curve of BSA (50-250 μg/mL).
DβH activity was measured by a modification of the method of Nagatsu and Udenfriend (Nagatsu, T. and S. Udenfriend: “Photometric assay of dopamine-hydroxylase activity in human blood.” Clin. Chem. 18(9): 980-3, 1972) which is based on the enzymatic hydroxylation of tyramine into octopamine. The octopamine formed is subsequently oxidized to p-hydroxybenzaldehyde and measured by spectrophotometry. In brief, reaction mixture (total volume 500 μl) contained: cellular homogenate (75 μg total protein) sodium acetate pH 5.0 (200 mM), NEM (30 mM), CuSO4 (5 μM), catalase aqueous solution (0.5 mg/mL), pargyline-HCl (1 mM), sodium fumarate (10 mM), ascorbic acid (10 mM), inhibitor or vehicle and tyramine (25 mM). After a 10 min pre-incubation period at 37° C., the reaction was initiated by the addition of tyramine. Reaction was carried out for 45 min at 37° C. before termination with 50 μl PCA (2 M).
Samples were centrifuged for 3 min at 16100 g and supernatants were subjected to solid phase extraction. Solid phase extraction was performed using either SPE cartridges ISOLUTE SCX-3 (100 mg, 1 mL) or SPE 2 mL fixed 96 well plates ISOLUTE SCX-3 (100 mg) previously equilibrated with MilliQ water. Columns/plates were centrifuged at 150 g for 2 min. Eluate was discarded and matrix was washed with 1 mL of MilliQ water after which octopamine was eluted with 2×0.25 mL ammonium hydroxide (4 M). The oxidation of octopamine to p-hydroxybenzaldehyde was carried out for 6 min with 100 μl sodium periodate (2%) and was stopped with 100 μl sodium metabisulfite (10%). Absorbance was measured at 330 nm on a Spectramax microplate reader (Molecular Devices, Sunnyvale, Calif.). All enzymatic reactions were performed in duplicate. Results are reported in the table below as activity in % of control at the inhibitor concentration tested.

As for `Fc1ccc(F)c([C@]23C[C@H]2c2c[nH]c(=S)n2C3)c1F` [Example 68, (5aS,6aR)-5a-(2,3,6-trifluorophenyl)-5,5a,6,6a-tetrahydrocyclopropa[3,4]pyrrolo[1,2-c]imidazole-3 (2H)-thione], the remaining activity at 1 µM amounted to 5.1%.

For the compound `Fc1ccc(Cl)c([C@]23C[C@H]2c2c[nH]c(=S)n2C3)c1` [Example 75, (5aS,6aR)-5a-(2-chloro-5-fluorophenyl)-5,5a,6,6a-tetrahydrocyclopropa[3,4]pyrrolo[1,2-c]imidazole-3 (2H)-thione], the remaining activity at 1 µM is 18.1%.

Consider `NC(=S)N1CCC(c2ccc(F)cc2)C1` (centres unmarked) [Example 3, 3-(4-Fluorophenyl)pyrrolidine-1-carbothioamide], for which the remaining activity at 0.1 µM is 89%, the remaining activity at 1 µM came out at 53.8% and the remaining activity at 10 µM came out at 3.9%.

Take `Cc1[nH]c(=S)n2c1[C@@H]1C[C@]1(c1cc(F)ccc1F)C2` [Example 78, (5aS,6aR)-5a-(2,5-difluorophenyl)-1-methyl-5,5a,6,6a-tetrahydrocyclopropa[3,4]pyrrolo[1,2-c]imidazole-3 (2H)-thione]: the remaining activity at 1 µM was found to be 10.9%.

For the compound `CNC(=S)N1CCC(c2c(F)c(F)cc(F)c2F)C1` (centres unmarked) [Example 33, N-methyl-3-(2,3,5,6-tetrafluorophenyl)pyrrolidine-1-carbothioamide], the remaining activity at 0.1 µM came to 11.8% and the remaining activity at 1 µM came to 1%.

As to `Fc1c(Cl)cccc1[C@]12C[C@H]1c1c[nH]c(=S)n1C2` [Example 92, (5aS,6aR)-5a-(3-chloro-2-fluorophenyl)-5,5a,6,6a-tetrahydrocyclopropa[3,4]pyrrolo[1,2-c]imidazole-3 (2H)-thione], the remaining activity at 0.1 µM came to 2% and the remaining activity at 1 µM came out at 0%.

For `Cc1[nH]c(=S)n2c1[C@@H]1C[C@]1(c1c(F)ccc(Br)c1F)C2` [Example 121, (5aS,6aR)-5a-(3-bromo-2,6-difluorophenyl)-1-methyl-5,5a,6,6a-tetrahydrocyclopropa[3,4]pyrrolo[1,2-c]imidazole-3 (2H)-thione], the remaining activity at 0.1 µM came out at 5.2% and the remaining activity at 1 µM stood at 0%.

On to `Fc1ccc(F)c([C@@]23C[C@@H]2c2c[nH]c(=S)n2C3)c1F` [Example 69, (5aR,6aS)-5a-(2,3,6-trifluorophenyl)-5,5a,6,6a-tetrahydrocyclopropa[3,4]pyrrolo[1,2-c]imidazole-3 (2H)-thione], for which the remaining activity at 1 µM was determined as 14.6%.

`C[C@@H]1c2c[nH]c(=S)n2C[C@H]1c1c(F)c(F)cc(F)c1F` [Example 107, (6R,7S)-7-methyl-6-(2,3,5,6-tetrafluorophenyl)-2,5,6,7-tetrahydro-3H-pyrrolo[1,2-c]imidazole-3-thione]: the remaining activity at 1 µM came to 54.7%.

As to `Fc1cc(F)c(F)c([C@H]2Cc3c[nH]c(=S)n3C2)c1` [Example 83, (R)-6-(2,3,5-trifluorophenyl)-2,5,6,7-tetrahydro-3H-pyrrolo[1,2-c]imidazole-3-thione], the remaining activity at 0.1 µM turned out to be 84% and the remaining activity at 1 µM turned out to be 33.1%.

`[2H]C([2H])([2H])n1cc2n(c1=S)C[C@@]1(c3cc(Cl)ccc3F)C[C@@H]21` [Example 101, (5aS,6aR)-5a-(5-chloro-2-fluorophenyl)-2-(methyl-d3)-5,5a,6,6a-tetrahydrocyclopropa[3,4]pyrrolo[1,2-c]imidazole-3 (2H)-thione]: the remaining activity at 0.1 µM is 14.5% and the remaining activity at 1 µM is 0%.

As to `NC(=S)N1CCC(c2ccoc2)C1` (centres unmarked) [Example 16, 3-(furan-3-yl)pyrrolidine-1-carbothioamide], the remaining activity at 1 µM came to 55.5%.

For the compound `Fc1ccc(Cl)c(F)c1[C@]12C[C@H]1c1n[nH]c(=S)n1C2` [Example 88, (5aS,6aR)-5a-(3-chloro-2,6-difluorophenyl)-5,5a,6,6a-tetrahydrocyclopropa[3,4]pyrrolo[2,1-c][1,2,4]triazole-3(2H)-thione], the remaining activity at 0.1 µM came to 45.8% and the remaining activity at 1 µM stood at 6.2%.

Turning to `NC(=S)N1CCC(c2cc(F)ccc2F)C1` (centres unmarked) [Example 18, 3-(2,5-difluorophenyl)pyrrolidine-1-carbothioamide], the remaining activity at 0.1 µM worked out at 57% and the remaining activity at 1 µM was found to be 6.4%.

On to `Fc1cccc(F)c1[C@H]1Cc2c[nH]c(=S)n2C1` [Example 87, (R)-6-(2,6-difluorophenyl)-2,5,6,7-tetrahydro-3H-pyrrolo[1,2-c]imidazole-3-thione], for which the remaining activity at 0.1 µM is 36.5% and the remaining activity at 1 µM was found to be 0%.

In the case of `Fc1ccc(Cl)c(F)c1[C@]12C[C@H]1c1c[nH]c(=S)n1C2` [Example 90, (5aS,6aR)-5a-(3-chloro-2,6-difluorophenyl)-5,5a,6,6a-tetrahydrocyclopropa[3,4]pyrrolo[1,2-c]imidazole-3 (2H)-thione], the remaining activity at 0.1 µM came to 1.8% and the remaining activity at 1 µM is 1%.

Consider `Cn1cc2n(c1=S)C[C@@H](c1c(F)c(F)cc(F)c1F)C2` [Example 114, (R)-2-methyl-6-(2,3,5,6-tetrafluorophenyl)-2,5,6,7-tetrahydro-3H-pyrrolo[1,2-c]imidazole-3-thione], for which the remaining activity at 0.1 µM turned out to be 70.8% and the remaining activity at 1 µM is 15.2%.

`Fc1ccc([C@]23C[C@H]2c2c[nH]c(=S)n2C3)cc1F` [Example 71, (5aS,6aR)-5a-(3,4-difluorophenyl)-5,5a,6,6a-tetrahydrocyclopropa[3,4]pyrrolo[1,2-c]imidazole-3(2H)-thione]: the remaining activity at 1 µM was 48.5%.

Turning to `Cc1ccccc1C1CCN(C(N)=S)C1` (centres unmarked) [Example 13, 3-o-tolylpyrrolidine-1-carbothioamide], the remaining activity at 10 µM was 7.2%.

For the compound `NC(=S)N1CC[C@@H](c2ccccc2)C1` [Example 6, (S)-3-phenylpyrrolidine-1-carbothioamide], the remaining activity at 0.1 µM stood at 97.6%, the remaining activity at 1 µM amounted to 50.3% and the remaining activity at 10 µM was 3.3%.

On to `Fc1ccc(Br)c(F)c1[C@@H]1Cc2c[nH]c(=S)n2C1` [Example 117, (S)-6-(3-bromo-2,6-difluorophenyl)-2,5,6,7-tetrahydro-3H-pyrrolo[1,2-c]imidazole-3-thione], for which the remaining activity at 0.1 µM was determined as 6.4% and the remaining activity at 1 µM was 0%.

In the case of `Cc1[nH]c(=S)n2c1C[C@H](c1c(F)ccc(Cl)c1F)C2` [Example 104, (R)-6-(3-chloro-2,6-difluorophenyl)-1-methyl-2,5,6,7-tetrahydro-3H-pyrrolo[1,2-c]imidazole-3-thione], the remaining activity at 0.1 µM was found to be 47.5% and the remaining activity at 1 µM is 6%.

For the compound `Cn1cc2n(c1=S)C[C@@]1(c3cc(Cl)ccc3F)C[C@@H]21` [Example 116, (5aS,6aR)-5a-(5-chloro-2-fluorophenyl)-2-methyl-5,5a,6,6a-tetrahydrocyclopropa[3,4]pyrrolo[1,2-c]imidazole-3 (2H)-thione], the remaining activity at 0.1 µM was 24.8% and the remaining activity at 1 µM was 0%.

As for `Cn1cc2n(c1=S)C[C@@]1(c3cc(F)cc(F)c3)C[C@@H]21` [Example 76, (5aS,6aR)-5a-(3,5-difluorophenyl)-2-methyl-5,5a,6,6a-tetrahydrocyclopropa[3,4]pyrrolo[1,2-c]imidazole-3 (2H)-thione], the remaining activity at 1 µM was determined as 17.4%.
